Values joined by “and” are separate entries in the source; they are usually repeats but may differ in a detail not shown here. Equal entries are not always repeated.
Tests used:
Test in all cases: In-cell proteome-wide competitive ABPP, HEK293: other DUBs and proteins
[1] = biological target: DUBs and other proteins in HEK293 cells (Homo sapiens, UniProt Q9UPU5); settings: replicates A-C; for Log2 reporter intensity values: USP24: DMSO substract (FC); for Log2 reporter intensity values: USP24, DMSO subtracted
Sequence of DUBs and other proteins in HEK293 cells (Homo sapiens, UniProt Q9UPU5) (Q9UPU5 whole entry): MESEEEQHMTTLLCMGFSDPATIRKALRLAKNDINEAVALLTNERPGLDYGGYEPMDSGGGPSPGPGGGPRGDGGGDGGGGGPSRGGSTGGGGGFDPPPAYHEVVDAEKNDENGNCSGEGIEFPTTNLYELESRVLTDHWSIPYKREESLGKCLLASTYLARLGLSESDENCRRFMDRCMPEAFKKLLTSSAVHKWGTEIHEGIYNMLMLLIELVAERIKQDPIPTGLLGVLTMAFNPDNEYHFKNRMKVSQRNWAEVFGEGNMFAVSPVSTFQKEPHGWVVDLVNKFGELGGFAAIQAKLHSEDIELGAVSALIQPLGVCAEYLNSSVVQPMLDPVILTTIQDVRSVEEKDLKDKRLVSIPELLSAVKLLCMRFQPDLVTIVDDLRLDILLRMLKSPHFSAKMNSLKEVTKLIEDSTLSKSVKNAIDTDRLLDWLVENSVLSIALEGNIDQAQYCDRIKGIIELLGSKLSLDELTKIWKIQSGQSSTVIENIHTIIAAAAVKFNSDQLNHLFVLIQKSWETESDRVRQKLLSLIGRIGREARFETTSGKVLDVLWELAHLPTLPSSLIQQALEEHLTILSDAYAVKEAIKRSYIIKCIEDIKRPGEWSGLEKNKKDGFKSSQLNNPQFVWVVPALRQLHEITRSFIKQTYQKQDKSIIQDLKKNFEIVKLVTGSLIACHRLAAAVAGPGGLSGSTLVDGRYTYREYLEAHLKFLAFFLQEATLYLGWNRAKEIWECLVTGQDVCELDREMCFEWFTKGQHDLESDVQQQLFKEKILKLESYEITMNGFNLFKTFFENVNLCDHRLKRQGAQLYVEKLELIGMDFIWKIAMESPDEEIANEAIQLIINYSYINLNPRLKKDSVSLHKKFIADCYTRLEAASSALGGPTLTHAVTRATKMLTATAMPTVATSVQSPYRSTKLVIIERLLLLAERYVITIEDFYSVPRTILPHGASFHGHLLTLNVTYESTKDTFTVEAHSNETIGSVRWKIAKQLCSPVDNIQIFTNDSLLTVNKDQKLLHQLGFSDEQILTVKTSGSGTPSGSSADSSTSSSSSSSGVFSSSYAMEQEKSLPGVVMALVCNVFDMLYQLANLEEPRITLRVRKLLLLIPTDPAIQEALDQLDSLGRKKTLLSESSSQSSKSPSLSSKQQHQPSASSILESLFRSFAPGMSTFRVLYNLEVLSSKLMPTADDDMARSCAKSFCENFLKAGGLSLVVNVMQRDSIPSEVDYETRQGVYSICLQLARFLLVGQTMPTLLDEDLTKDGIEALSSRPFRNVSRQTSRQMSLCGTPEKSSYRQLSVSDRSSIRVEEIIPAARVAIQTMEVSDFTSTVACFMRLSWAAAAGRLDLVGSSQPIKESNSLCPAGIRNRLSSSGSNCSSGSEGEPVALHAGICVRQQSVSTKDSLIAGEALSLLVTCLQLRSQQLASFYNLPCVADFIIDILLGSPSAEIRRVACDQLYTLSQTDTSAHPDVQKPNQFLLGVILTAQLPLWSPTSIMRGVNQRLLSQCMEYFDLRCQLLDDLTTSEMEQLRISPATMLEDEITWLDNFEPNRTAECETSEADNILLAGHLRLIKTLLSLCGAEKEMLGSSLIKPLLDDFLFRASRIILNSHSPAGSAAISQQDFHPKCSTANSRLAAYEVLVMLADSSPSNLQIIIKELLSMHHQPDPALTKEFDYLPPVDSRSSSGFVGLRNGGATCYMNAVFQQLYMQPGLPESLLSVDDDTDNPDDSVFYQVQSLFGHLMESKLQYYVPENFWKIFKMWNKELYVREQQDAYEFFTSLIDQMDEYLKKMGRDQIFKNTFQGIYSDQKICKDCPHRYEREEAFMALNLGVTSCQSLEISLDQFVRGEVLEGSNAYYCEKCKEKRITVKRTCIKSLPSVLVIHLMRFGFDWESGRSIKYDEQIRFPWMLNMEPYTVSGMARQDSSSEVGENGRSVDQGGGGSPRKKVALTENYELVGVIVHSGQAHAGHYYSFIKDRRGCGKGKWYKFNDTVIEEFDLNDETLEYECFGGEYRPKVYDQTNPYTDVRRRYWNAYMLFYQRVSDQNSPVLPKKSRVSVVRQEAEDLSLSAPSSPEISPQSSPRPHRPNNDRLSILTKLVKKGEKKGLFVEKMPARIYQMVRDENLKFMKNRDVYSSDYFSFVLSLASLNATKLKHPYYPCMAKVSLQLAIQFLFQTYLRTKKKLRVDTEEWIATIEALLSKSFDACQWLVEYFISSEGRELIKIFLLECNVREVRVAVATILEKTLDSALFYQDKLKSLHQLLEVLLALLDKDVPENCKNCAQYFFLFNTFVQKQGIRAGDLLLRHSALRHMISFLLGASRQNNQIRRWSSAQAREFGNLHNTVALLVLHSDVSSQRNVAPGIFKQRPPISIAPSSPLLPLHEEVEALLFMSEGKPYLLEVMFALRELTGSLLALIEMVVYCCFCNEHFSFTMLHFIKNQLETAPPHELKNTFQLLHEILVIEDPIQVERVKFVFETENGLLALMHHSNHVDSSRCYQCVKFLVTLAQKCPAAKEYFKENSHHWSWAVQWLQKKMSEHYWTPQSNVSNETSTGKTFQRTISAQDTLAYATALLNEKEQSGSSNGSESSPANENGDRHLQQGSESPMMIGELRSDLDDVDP

[2] = biological target: T1, DUBs and other proteins in HEK293 cells (Homo sapiens, UniProt Q96RU2); settings: replicates A-C; for Log2 reporter intensity values: USP28: competition with ABP 2, DMSO substract (FC); for Log2 reporter intensity values: USP28, DMSO subtracted
T1 sequence (Q96RU2 1-1077): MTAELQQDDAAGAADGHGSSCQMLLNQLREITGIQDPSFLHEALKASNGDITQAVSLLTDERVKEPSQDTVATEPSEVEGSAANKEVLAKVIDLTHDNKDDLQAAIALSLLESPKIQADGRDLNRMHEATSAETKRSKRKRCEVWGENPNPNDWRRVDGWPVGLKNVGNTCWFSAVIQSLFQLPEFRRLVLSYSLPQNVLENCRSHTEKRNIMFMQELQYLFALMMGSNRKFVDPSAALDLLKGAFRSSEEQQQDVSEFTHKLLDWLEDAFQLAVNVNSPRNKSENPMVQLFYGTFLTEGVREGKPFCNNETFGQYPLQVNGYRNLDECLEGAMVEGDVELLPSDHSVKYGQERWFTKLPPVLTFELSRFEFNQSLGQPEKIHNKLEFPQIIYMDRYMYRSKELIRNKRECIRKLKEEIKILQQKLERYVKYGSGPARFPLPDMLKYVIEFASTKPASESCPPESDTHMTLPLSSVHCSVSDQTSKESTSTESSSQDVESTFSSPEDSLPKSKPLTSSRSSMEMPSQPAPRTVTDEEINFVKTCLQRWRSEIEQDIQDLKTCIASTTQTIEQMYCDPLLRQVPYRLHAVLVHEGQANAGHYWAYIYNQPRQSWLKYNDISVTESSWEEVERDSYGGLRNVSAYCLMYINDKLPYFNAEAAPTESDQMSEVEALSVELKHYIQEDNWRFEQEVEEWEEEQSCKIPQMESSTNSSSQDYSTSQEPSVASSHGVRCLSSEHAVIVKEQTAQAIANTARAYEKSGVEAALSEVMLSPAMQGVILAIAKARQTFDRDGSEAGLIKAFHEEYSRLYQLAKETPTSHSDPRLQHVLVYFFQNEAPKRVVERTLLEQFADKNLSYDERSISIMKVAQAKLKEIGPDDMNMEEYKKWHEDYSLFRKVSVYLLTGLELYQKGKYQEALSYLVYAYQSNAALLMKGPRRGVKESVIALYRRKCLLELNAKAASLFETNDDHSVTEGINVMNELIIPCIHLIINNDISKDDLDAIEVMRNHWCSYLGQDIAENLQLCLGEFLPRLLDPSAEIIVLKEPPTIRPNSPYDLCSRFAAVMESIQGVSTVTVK

[3] = biological target: DUBs and other proteins in HEK293 cells (Homo sapiens, UniProt P54578); settings: replicates A-C; for Log2 reporter intensity values: USP14: competition with ABP 2, DMSO substract (FC); for Log2 reporter intensity values: USP14, DMSO subtracted
Sequence of DUBs and other proteins in HEK293 cells (Homo sapiens, UniProt P54578) (P54578 whole entry): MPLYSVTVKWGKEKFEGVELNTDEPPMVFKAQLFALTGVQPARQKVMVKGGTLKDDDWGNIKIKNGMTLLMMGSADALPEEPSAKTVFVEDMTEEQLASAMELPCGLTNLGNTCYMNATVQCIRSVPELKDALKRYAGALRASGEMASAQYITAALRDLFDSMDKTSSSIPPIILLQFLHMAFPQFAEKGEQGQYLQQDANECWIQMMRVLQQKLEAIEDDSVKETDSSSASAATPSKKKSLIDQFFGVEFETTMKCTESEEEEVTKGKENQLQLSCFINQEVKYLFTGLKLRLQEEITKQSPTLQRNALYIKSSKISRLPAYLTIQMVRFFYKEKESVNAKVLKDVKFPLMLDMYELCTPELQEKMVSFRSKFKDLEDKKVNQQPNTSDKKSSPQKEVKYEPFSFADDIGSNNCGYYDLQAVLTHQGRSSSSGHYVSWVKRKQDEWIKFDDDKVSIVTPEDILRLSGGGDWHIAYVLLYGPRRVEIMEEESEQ

[4] = biological target: T2, DUBs and other proteins in HEK293 cells (Homo sapiens, UniProt P40818); settings: for Log2 reporter intensity values: USP8: competition with ABP 2, DMSO substract (FC), replicates A-B; for Log2 reporter intensity values: USP8, DMSO subtracted
T2 sequence (P40818 1-1118): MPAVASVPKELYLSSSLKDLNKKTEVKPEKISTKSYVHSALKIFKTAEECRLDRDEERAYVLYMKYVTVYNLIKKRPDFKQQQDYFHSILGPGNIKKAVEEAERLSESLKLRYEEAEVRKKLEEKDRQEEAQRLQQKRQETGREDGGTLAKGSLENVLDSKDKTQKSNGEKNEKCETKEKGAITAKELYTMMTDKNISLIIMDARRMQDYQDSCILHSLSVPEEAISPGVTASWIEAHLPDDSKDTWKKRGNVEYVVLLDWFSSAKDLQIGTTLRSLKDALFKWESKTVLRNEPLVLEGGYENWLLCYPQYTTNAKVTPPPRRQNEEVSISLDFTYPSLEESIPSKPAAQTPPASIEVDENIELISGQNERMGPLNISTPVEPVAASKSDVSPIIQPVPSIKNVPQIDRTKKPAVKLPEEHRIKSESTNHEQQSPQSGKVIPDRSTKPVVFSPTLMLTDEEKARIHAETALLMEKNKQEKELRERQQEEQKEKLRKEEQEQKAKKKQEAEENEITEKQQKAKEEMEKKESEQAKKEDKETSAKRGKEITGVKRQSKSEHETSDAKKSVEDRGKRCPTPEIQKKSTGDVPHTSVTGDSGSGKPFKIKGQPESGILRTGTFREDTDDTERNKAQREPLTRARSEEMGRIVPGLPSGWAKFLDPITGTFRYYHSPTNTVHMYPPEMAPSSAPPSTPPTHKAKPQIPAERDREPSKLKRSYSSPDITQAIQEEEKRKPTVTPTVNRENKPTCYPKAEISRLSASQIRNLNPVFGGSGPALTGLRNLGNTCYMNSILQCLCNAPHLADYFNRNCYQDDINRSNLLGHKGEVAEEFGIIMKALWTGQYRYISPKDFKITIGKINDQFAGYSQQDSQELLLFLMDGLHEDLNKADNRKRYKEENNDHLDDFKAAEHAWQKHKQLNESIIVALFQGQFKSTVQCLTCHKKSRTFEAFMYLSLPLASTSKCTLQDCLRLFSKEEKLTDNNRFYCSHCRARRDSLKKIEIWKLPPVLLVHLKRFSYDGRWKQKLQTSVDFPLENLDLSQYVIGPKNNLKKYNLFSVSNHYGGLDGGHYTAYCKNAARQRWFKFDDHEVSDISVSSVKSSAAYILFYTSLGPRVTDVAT

[5] = biological target: DUBs and other proteins in HEK293 cells (Homo sapiens, UniProt Q9Y5T5); settings: replicates A-C; for Log2 reporter intensity values: USP16: competition with ABP 2, DMSO substract (FC); for Log2 reporter intensity values: USP16, DMSO subtracted
Sequence of DUBs and other proteins in HEK293 cells (Homo sapiens, UniProt Q9Y5T5) (Q9Y5T5 whole entry): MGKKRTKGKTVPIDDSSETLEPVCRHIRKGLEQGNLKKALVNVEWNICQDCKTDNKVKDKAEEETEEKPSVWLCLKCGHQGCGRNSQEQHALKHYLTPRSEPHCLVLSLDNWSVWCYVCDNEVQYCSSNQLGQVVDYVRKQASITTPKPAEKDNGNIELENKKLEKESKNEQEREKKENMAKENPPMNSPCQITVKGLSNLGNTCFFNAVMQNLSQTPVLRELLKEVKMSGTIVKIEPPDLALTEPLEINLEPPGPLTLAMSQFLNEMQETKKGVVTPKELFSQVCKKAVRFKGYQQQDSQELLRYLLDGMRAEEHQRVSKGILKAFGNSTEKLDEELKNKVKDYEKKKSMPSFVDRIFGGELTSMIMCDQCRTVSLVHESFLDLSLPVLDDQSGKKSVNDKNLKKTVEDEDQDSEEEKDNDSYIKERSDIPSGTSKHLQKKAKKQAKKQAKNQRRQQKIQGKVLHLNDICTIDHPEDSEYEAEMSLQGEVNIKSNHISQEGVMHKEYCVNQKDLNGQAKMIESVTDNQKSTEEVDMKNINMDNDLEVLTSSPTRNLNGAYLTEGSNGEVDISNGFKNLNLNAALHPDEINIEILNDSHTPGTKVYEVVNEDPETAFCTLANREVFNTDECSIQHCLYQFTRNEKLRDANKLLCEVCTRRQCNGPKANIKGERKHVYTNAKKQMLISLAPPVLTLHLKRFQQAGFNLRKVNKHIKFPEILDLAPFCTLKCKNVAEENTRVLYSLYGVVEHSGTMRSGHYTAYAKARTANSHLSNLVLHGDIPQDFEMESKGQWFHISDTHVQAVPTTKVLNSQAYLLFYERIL

N#CN1CCC[C@H]1C(=O)N1CCc2c(-c3c[nH]c4ncccc34)cccc21 [Compound 1]
Log2 reporter intensity values: USP24 ([1]; 1 at 1 μM, competition with ABP 2): 1.001 and 1.09 and 1.248 | Log2 reporter intensity values: USP24 ([1]; 1 at 4 μM, competition with ABP 2): 0.9741 and 0.9874 and 0.9877 | Log2 reporter intensity values ([1]; 1_1 μM): -0.002058 and 0.08693 and 0.2444 | Log2 reporter intensity values ([1]; 1_4 μM): -0.02929 and -0.01601 and -0.01571 | Log2 reporter intensity values ([1]; 1 at 1 μM): 0.00188 and 0.1247 and 0.3193 | Log2 reporter intensity values ([1]; 1 at 4 μM): -0.0379 and -0.01836 and -0.01793 | Log2 reporter intensity values: USP28 ([2]; 1 at 1 μM): 0.9959 and 0.8739 and 1.601 | Log2 reporter intensity values: USP28 ([2]; 1 at 4 μM): 1.351 and 1.583 and 1.105 | Log2 reporter intensity values ([2]; 1_1 μM): -0.04385 and -0.1658 and 0.561 | Log2 reporter intensity values ([2]; 1_4 μM): 0.3117 and 0.5434 and 0.06533 | Log2 reporter intensity values ([2]; 1 at 1 μM): -0.005982 and -0.1944 and 0.6787 | Log2 reporter intensity values ([2]; 1 at 4 μM): 0.4345 and 0.6627 and 0.1441 | Log2 reporter intensity values: USP14 ([3]; 1 at 1 μM): 1.068 and 1.073 and 1.08 | Log2 reporter intensity values: USP14 ([3]; 1 at 4 μM): 1.026 and 1.014 and 1.052 | Log2 reporter intensity values ([3]; 1_1 μM): 0.06753 and 0.073 and 0.0796 | Log2 reporter intensity values ([3]; 1_4 μM): 0.02617 and 0.01386 and 0.05174 | Log2 reporter intensity values ([3]; 1 at 1 μM): 0.09459 and 0.102 and 0.1108 | Log2 reporter intensity values ([3]; 1 at 4 μM): 0.03759 and 0.02017 and 0.07309 | Log2 reporter intensity values: USP8 ([4]; 1 at 1 μM): 0.9851 and 0.9804 | Log2 reporter intensity values: USP8 ([4]; 1 at 4 μM): 1.1 and 1.102 | Log2 reporter intensity values ([4]; 1_1 μM, replicates A-B (C NaN)): -0.01738 and -0.02201 | Log2 reporter intensity values ([4]; 1_4 μM, replicates A-B (C NaN)): 0.09749 and 0.0991 | Log2 reporter intensity values ([4]; 1 at 1 μM, replicates A-C): -0.0217 and -0.0285 | Log2 reporter intensity values ([4]; 1 at 4 μM, replicates A-C): 0.1374 and 0.1395 | Log2 reporter intensity values: USP16 ([5]; 1 at 1 μM): 1.022 and 1.047 and 1.014 | Log2 reporter intensity values: USP16 ([5]; 1 at 4 μM): 1.071 and 1.22 and 1.147 | Log2 reporter intensity values ([5]; 1_1 μM): 0.01937 and 0.04439 and 0.01154 | Log2 reporter intensity values ([5]; 1_4 μM): 0.06901 and 0.2175 and 0.1444 | Log2 reporter intensity values ([5]; 1 at 1 μM): 0.03077 and 0.06568 and 0.01967 | Log2 reporter intensity values ([5]; 1 at 4 μM): 0.09923 and 0.2865 and 0.1974

C#Cc1cnc2[nH]cc(-c3cccc4c3CCN4C(=O)[C@@H]3CCCN3C#N)c2c1 [Compound 2]
Log2 reporter intensity values: USP24 ([1]; 20 nM ABP 2 alone): 1.118 and 1.126 and 1.127 | Log2 reporter intensity values ([1]; 20 nM ABP 2): 0.1605 and 0.1713 and 0.1729 and 0.1143 and 0.1227 and 0.1239 | Log2 reporter intensity values ([3]; 20 nM ABP 2): 0.1674 and 0.2186 and 0.2005 and 0.1633 and 0.1489
